The values below come from PubChem BioAssay AID180 (DTP/NCI, 2004).

Each structure is given as a SMILES string. Several values for one entry are separate records, joined by “and”; a condition that tells them apart may be missing. Equal entries are not always repeated.

For this assay, the system named is BDF1 mice, Adenocarcinoma 755 s.c., tumor weight T/C. Put plainly: NCI In Vivo Anticancer Drug Screen. Data for tumor model Adenocarcinoma 755 (subcutaneous) in B6D2F1 (BDF1) mice. As to conditions: endpoint: mean tumor weight, higher = larger tumour. The procedure, abridged:
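In vivo antitumor screen on a transplantable tumor line. Result equals the measure in compound-treated animals divided by the same measure in vehicle controls.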

Setting [1] is: dose: 15.0 mg/kg/injection, schedule: Q01DX011 (ip), vehicle: methylcellulose (MC).
Setting [2] is: dose: 31.0 mg/kg/injection, schedule: Q01DX011 (ip), vehicle: methylcellulose (MC).
Setting [3] is: dose: 62.0 mg/kg/injection, schedule: Q01DX011 (ip), vehicle: methylcellulose (MC).
Setting [4] is: dose: 125.0 mg/kg/injection, schedule: Q01DX011 (ip), vehicle: methylcellulose (MC).
Setting [5] is: dose: 37.5 mg/kg/injection, schedule: Q01DX011 (ip), vehicle: methylcellulose (MC).
Where [6] appears, read: dose: 75.0 mg/kg/injection, schedule: Q01DX011 (ip), vehicle: methylcellulose (MC).
The mark [7] stands for this setting: dose: 150.0 mg/kg/injection, schedule: Q01DX011 (ip), vehicle: methylcellulose (MC).
Where [8] appears, read: dose: 125.0 mg/kg/injection, schedule: Q01DX011 (ip), vehicle: carboxymethylcellulose (CMC).
The mark [9] stands for this setting: dose: 250.0 mg/kg/injection, schedule: Q01DX011 (ip), vehicle: carboxymethylcellulose (CMC).
The mark [10] stands for this setting: dose: 25.0 mg/kg/injection, schedule: Q01DX011 (ip), vehicle: methylcellulose (MC).

One may read the T/C as the result in the treated group divided by that in the control group, in per cent. Consider `c1nc(SC2CCCC2)c2[nH]cnc2n1`, for which the T/C is, setting by setting: (dose: 0.62 mg/kg/injection, schedule: Q01DX011 (ip), vehicle: carboxymethylcellulose (CMC)) 76 % of control; (dose: 0.62 mg/kg/injection, schedule: Q01DX011 (oral), vehicle: carboxymethylcellulose (CMC)) 93 % of control; (dose: 1.25 mg/kg/injection, schedule: Q01DX011 (ip), vehicle: carboxymethylcellulose (CMC)) 66 % of control; (dose: 2.5 mg/kg/injection, schedule: Q01DX011 (ip), vehicle: carboxymethylcellulose (CMC)) 45 % of control; (dose: 2.5 mg/kg/injection, schedule: Q01DX011 (oral), vehicle: carboxymethylcellulose (CMC)) 62 % of control; (dose: 5.0 mg/kg/injection, schedule: Q01DX011 (oral), vehicle: carboxymethylcellulose (CMC)) 6 % of control. In addition, the T/C is 59 % of control (dose: 5.2 mg/kg/injection, schedule: Q01DX011 (ip), vehicle: carboxymethylcellulose (CMC)); 6 % of control (dose: 10.0 mg/kg/injection, schedule: Q01DX011 (ip), vehicle: carboxymethylcellulose (CMC)); 3 % of control (dose: 10.0 mg/kg/injection, schedule: Q01DX011 (oral), vehicle: carboxymethylcellulose (CMC)); 20 % of control (dose: 10.5 mg/kg/injection, schedule: Q01DX011 (ip), vehicle: carboxymethylcellulose (CMC)); 6 % of control and 17 % of control (dose: 21.0 mg/kg/injection, schedule: Q01DX011 (ip), vehicle: carboxymethylcellulose (CMC)); 7 % of control (dose: 21.0 mg/kg/injection, schedule: Q01DX011 (oral), vehicle: carboxymethylcellulose (CMC)). Besides, the T/C reads like this: (dose: 42.0 mg/kg/injection, schedule: Q01DX011 (ip), vehicle: carboxymethylcellulose (CMC)) 4 % of control; (dose: 42.5 mg/kg/injection, schedule: Q01DX011 (ip), vehicle: carboxymethylcellulose (CMC)) 1 % of control; (dose: 84.0 mg/kg/injection, schedule: Q01DX011 (oral), vehicle: carboxymethylcellulose (CMC)) 5 % of control; (dose: 85.0 mg/kg/injection, schedule: Q01DX011 (ip), vehicle: carboxymethylcellulose (CMC)) 1 % of control and 2 % of control; (dose: 85.0 mg/kg/injection, schedule: Q01DX011 (oral), vehicle: carboxymethylcellulose (CMC)) 2 % of control; (dose: 87.0 mg/kg/injection, schedule: Q01DX001 (ip), vehicle: carboxymethylcellulose (CMC)) 43 % of control. The T/C runs as follows: (dose: 174.0 mg/kg/injection, schedule: Q01DX001 (ip), vehicle: carboxymethylcellulose (CMC)) 44 % of control; (dose: 347.0 mg/kg/injection, schedule: Q01DX001 (ip), vehicle: carboxymethylcellulose (CMC)) 25 % of control; (dose: 694.0 mg/kg/injection, schedule: Q01DX001 (ip), vehicle: carboxymethylcellulose (CMC)) 24 % of control.

`CSc1ncc(Br)c(Nc2ccc(Br)cc2)n1`: the T/C under setting [1] is 94 % of control; the T/C under setting [2] was 103 % of control; the T/C under setting [3] is 123 % of control; the T/C under setting [4] is 114 % of control; the T/C (dose: 250.0 mg/kg/injection, schedule: Q01DX011 (ip), vehicle: methylcellulose (MC)) is 86 % of control.

In the case of `Nc1nc(SCC(=O)c2ccccc2)c2ncn(C3OC(CO)C(O)C3O)c2n1` (configuration not stated), the T/C is 15 % of control under setting [5], 5 % of control under setting [6] and 5 % of control under setting [7].

`O=C(CC[n+]1ccccc1)N1CCN(C(=O)CC[n+]2ccccc2)CC1`: the T/C reads like this: (dose: 1.0 mg/kg/injection, schedule: Q01DX011 (ip), vehicle: methylcellulose (MC)) 94 % of control; (dose: 3.0 mg/kg/injection, schedule: Q01DX011 (ip), vehicle: methylcellulose (MC)) 68 % of control.

On to `CNC(C)=O`, for which the T/C was 79 % of control and 86 % of control under setting [8]; 104 % of control and 85 % of control under setting [9]; 60 % of control and 82 % of control (dose: 1000.0 mg/kg/injection, schedule: Q01DX011 (ip), vehicle: carboxymethylcellulose (CMC)).

Regarding `CC1(C)OC2C(CO)OC(n3cnc4c(SCc5ccccc5)ncnc43)C2O1` (configuration not stated), the T/C runs as follows: under setting [2], 79 % of control; under setting [3], 59 % of control; under setting [4], 50 % of control.

On to `CCCSc1nc(N)nc2c1ncn2CC(C)C`, for which the T/C (dose: 6.25 mg/kg/injection, schedule: Q01DX011 (ip), vehicle: methylcellulose (MC)) was 31 % of control; the T/C (dose: 12.5 mg/kg/injection, schedule: Q01DX011 (ip), vehicle: methylcellulose (MC)) is 25 % of control; the T/C under setting [10] is 4 % of control; the T/C (dose: 50.0 mg/kg/injection, schedule: Q01DX011 (ip), vehicle: methylcellulose (MC)) is 1 % of control.

In the case of `Cn1c(=O)c2[nH]cnc2n(C)c1=O`, the T/C is 85 % of control (dose: 14.5 mg/kg/injection, schedule: Q01DX011 (ip), vehicle: carboxymethylcellulose (CMC)); 68 % of control (dose: 18.25 mg/kg/injection, schedule: Q01DX011 (ip), vehicle: carboxymethylcellulose (CMC)); 80 % of control (dose: 19.87 mg/kg/injection, schedule: Q01DX011 (ip), vehicle: carboxymethylcellulose (CMC)); 44 % of control (dose: 29.0 mg/kg/injection, schedule: Q01DX011 (ip), vehicle: carboxymethylcellulose (CMC)); 92 % of control (dose: 36.5 mg/kg/injection, schedule: Q01DX011 (ip), vehicle: carboxymethylcellulose (CMC)); 52 % of control (dose: 39.74 mg/kg/injection, schedule: Q01DX011 (ip), vehicle: carboxymethylcellulose (CMC)). The T/C is 86 % of control (dose: 63.0 mg/kg/injection, schedule: Q01DX011 (ip), vehicle: carboxymethylcellulose (CMC)); 53 % of control and 72 % of control (dose: 77.33 mg/kg/injection, schedule: Q01DX011 (ip), vehicle: carboxymethylcellulose (CMC)); 53 % of control (dose: 79.48 mg/kg/injection, schedule: Q01DX011 (ip), vehicle: carboxymethylcellulose (CMC)); 75 % of control (dose: 116.0 mg/kg/injection, schedule: Q01DX011 (ip), vehicle: carboxymethylcellulose (CMC)); 60 % of control (dose: 158.97 mg/kg/injection, schedule: Q01DX011 (ip), vehicle: carboxymethylcellulose (CMC)).

As to `CCCCCn1cnc2c(=S)nc[nH]c21`, the T/C was 94 % of control (dose: 31.0 mg/kg/injection, schedule: Q01DX011 (ip), vehicle: carboxymethylcellulose (CMC)); 78 % of control (dose: 62.0 mg/kg/injection, schedule: Q01DX011 (ip), vehicle: carboxymethylcellulose (CMC)); 43 % of control under setting [8]; 10 % of control under setting [9]; 6 % of control (dose: 500.0 mg/kg/injection, schedule: Q01DX011 (ip), vehicle: carboxymethylcellulose (CMC)).

Regarding `CN(C)CCCCl`, the T/C is, setting by setting: (dose: 25.0 mg/kg/injection, schedule: Q01DX011 (ip), vehicle: other) 81 % of control; (dose: 50.0 mg/kg/injection, schedule: Q01DX011 (ip), vehicle: other) 83 % of control; (dose: 100.0 mg/kg/injection, schedule: Q01DX011 (ip), vehicle: other) 98 % of control.

In the case of `CC(C)Cn1cnc2c(SCc3ccccc3[N+](=O)[O-])nc(N)nc21`, the T/C runs as follows: under setting [5], 42 % of control; under setting [6], 97 % of control; under setting [7], 62 % of control; (dose: 300.0 mg/kg/injection, schedule: Q01DX011 (ip), vehicle: methylcellulose (MC)) 14 % of control.

With `CC(=O)c1cccc(NC2C(N)C(NC(=O)N(C)C)(C(C)O)C(C)(O)C2(O)COC(=O)c2c(C)cccc2O)c1` (configuration not stated), the T/C reads like this: (dose: 0.25 mg/kg/injection, schedule: Q01DX011 (ip), vehicle: saline) 36 % of control; (dose: 0.5 mg/kg/injection, schedule: Q01DX011 (ip), vehicle: saline) 83 % of control; (dose: 1.0 mg/kg/injection, schedule: Q01DX011 (ip), vehicle: saline) 67 % of control; (dose: 2.0 mg/kg/injection, schedule: Q01DX011 (ip), vehicle: saline) 24 % of control.

As to `Cc1nc2nncn2c(=O)[nH]1`, the T/C is 67 % of control (dose: 25.0 mg/kg/injection, schedule: Q01DX011 (ip), vehicle: saline); 101 % of control (dose: 75.0 mg/kg/injection, schedule: Q01DX011 (ip), vehicle: saline); 84 % of control (dose: 225.0 mg/kg/injection, schedule: Q01DX011 (ip), vehicle: saline).

As for `Cn1c(=O)c2c(nc(COCc3nc4c(c(=O)n(C)c(=O)n4C)n3C)n2C)n(C)c1=O`, the T/C runs as follows: under setting [10], 60 % of control; under setting [6], 82 % of control; (dose: 225.0 mg/kg/injection, schedule: Q01DX011 (ip), vehicle: methylcellulose (MC)) 33 % of control.

On to `Nc1nc(Cl)cc(Nc2ccc(CCO)cc2)n1`, for which the T/C is 101 % of control under setting [1], 77 % of control under setting [3] and 102 % of control under setting [4].
